From patent publication US20230285347A1, “Preterm Labour with Prostaglandin E2 Receptor Agonists” (IMPERIAL COLLEGE INNOVATIONS LIMITED, priority 2020, published 2023)

Assays:
Format in all cases: cell-based
[1] = biological target: T1, EP2 (Homo sapiens, UniProt P43116); assay: Intracellular calcium response in primary myometrial cells; settings: PGN9856i 100 nM, FIG. 6
T1 construct: primary human myocytes cultured from term pregnant, non-labouring, myometrium; endogenous in cells; host or cells: primary human myometrial cells (myocytes) cultured from pregnant myometrium
Description: One-way ANOVA with Dunnet's multiple comparison post-hoc test: **p<0.01, and (B) calcium intensity traces over time from representative cells from (A). PGN9856i is unable to elicit intracellular calcium release in primary myometrial cells.
In the myometrium EP2 is an important regulator of parturition. To assess if PGN9856i, butaprost and AH13205 induce similar second messenger profiles in the myometrium as HEK 293 cells, primary human myocytes cultured from term pregnant, non-labouring, myometrium, were treated with each ligand and intracellular cAMP, calcium and PGE2 release was measured.
Myometrial tissue was acquired at St. Mary's hospital, Queen Charlotte and Chelsea hospital and Charing Cross hospital, London. Tissue was obtained from women provided with informed written consent with the approval from the Riverside Research Ethics Committee (RREC 3357, 1997-5089, 19/LO/1657) and experiments were carried out under the committee's guidelines and recommendations. Tissues were obtained from term (38+0-40 weeks gestation) pregnant women undergoing elective caesarean from the upper margin of the incision made at the lower segment of the uterus, before or after the onset of labor. Tissues taken from women in early labour (<3 cm cervical dilation) or late labour (>3 cm cervical dilation) with/without induction with syntocinon, an oxytocin analogue. […]

[2] = biological target: T1, EP2; assay: cAMP signalling in myometrial cells from different labouring groups, EP2 agonist; settings: butaprost 10 μM, FIG. 8
Description: L=non-labouring, L+E=early stage spontaneous labour, L+L=late stage spontaneous labour, L+SE=early stage induced labour, L+SL=late stage induced labour. Myometrial cells from different labouring groups were treated with IBMX (5 minutes, 0.5 mM) before 1 minute stimulation with IBMX with/without butaprost (10 μM) or isoproterenol (10 μM). cAMP concentrations were normalised to protein. Data shown as mean±SEM, L−n=4. All other groups n=5. Each treatment compared to L− using one-way ANOVA with Dunnett's multiple comparison post-hoc test: **p<0.01, ***p<0.001, ****p<0.0001.
Myometrial tissue was acquired at St. Mary's hospital, Queen Charlotte and Chelsea hospital and Charing Cross hospital, London. Tissue was obtained from women provided with informed written consent with the approval from the Riverside Research Ethics Committee (RREC 3357, 1997-5089, 19/LO/1657) and experiments were carried out under the committee's guidelines and recommendations. Tissues were obtained from term (38+0-40 weeks gestation) pregnant women undergoing elective caesarean from the upper margin of the incision made at the lower segment of the uterus, before or after the onset of labor. Tissues taken from women in early labour (<3 cm cervical dilation) or late labour (>3 cm cervical dilation) with/without induction with syntocinon, an oxytocin analogue. Tissue was only taken from uncomplicated, singleton pregnancies.
Tissue was stored at 4° C. in phosphate buffered saline until fine dissection with scalpels and dissociation at 37° C. for 1 hour in a sterile-filtered mix of Dulbecco's modified Eagle's medium (DMEM) (Sigma Aldrich)/Ham's F-12 Nutrient Mixture (Sigma Aldrich) and serum-free DMEM (Sigma Aldrich) (1:1 v/v) containing collagenase 1A (Sigma Aldrich)(1 mg/ml), collagenase X (Sigma Aldrich)(1 mg/ml) and bovine serum albumin (Sigma Aldrich) (2 mg/ml). Dissociation was ended using DMEM 10% fetal bovine serum (Sigma Aldrich) and cell suspension was obtained using a 40-μm cell strainer before centrifugation at 3000 rpm for 5 minutes. […]

[3] = biological target: T1, EP2; assay: COX-2 protein by western blot in myometrial cells from different labouring groups; settings: butaprost 10 μM, 6 hours
Description: L=non-labouring, L+E=early stage spontaneous labour, L+L=late stage spontaneous labour, L+SE=early stage induced labour, L+SL=late stage induced labour. (A) COX-2 protein (70 kB) determined by western blot and normalised to GAPDH protein (38 kB) in different labouring groups following 6 hour butaprost (10 μM) stimulation. Data shown as mean±SEM, n=5. Groups compared using one-way ANOVA with Dunnett's multiple comparison post-hoc test: *p<0.05. (B) Representative western blot for FIG. 9A.
Myometrial cells taken from women in different labouring groups were treated for 6-hours with butaprost. Confluent myometrial cells were lysed in RIPA buffer containing 1% Triton x-100, 1% Sodium deoxycholate, 0.1% SDS, 150 mM NaCl, 10 mM Tris, 1 mM EDTA plus 1 mM sodium orthovanadate and one Pierce EDTA-Free protease inhibitor mini tablet. 20-40 μg of lysate as determined via Bradford assay plus Laemmli buffer (0.5M pH 6.8 Tris, 10% SDS, 1% Bromophenol blue, 2% B-ME, 20% Glycerol) were separated with 1×SDS running buffer at 140V on SDS-PAGE gels polymerized with TEMED and ammonium persulfate: separating gel (40% poly, 1M pH 8.8 Tris, 10% SDS), […] (40% poly, 1M Tris (pH 6.8), 10% SDS). Proteins were transferred onto nitrocellulose membranes before blocking in 5% Milk TBS-T for 30 minutes and incubated overnight at 4° C. with primary antibody and blocking buffer (1:1000). Membranes were then incubated in TBS-T with appropriate secondary antibody for 1-3 hours (1:2000) before signal detection using HRP substrate and chemiluminescent imager (ImageQuant LAS 4000).

T1 sequence (P43116 whole entry): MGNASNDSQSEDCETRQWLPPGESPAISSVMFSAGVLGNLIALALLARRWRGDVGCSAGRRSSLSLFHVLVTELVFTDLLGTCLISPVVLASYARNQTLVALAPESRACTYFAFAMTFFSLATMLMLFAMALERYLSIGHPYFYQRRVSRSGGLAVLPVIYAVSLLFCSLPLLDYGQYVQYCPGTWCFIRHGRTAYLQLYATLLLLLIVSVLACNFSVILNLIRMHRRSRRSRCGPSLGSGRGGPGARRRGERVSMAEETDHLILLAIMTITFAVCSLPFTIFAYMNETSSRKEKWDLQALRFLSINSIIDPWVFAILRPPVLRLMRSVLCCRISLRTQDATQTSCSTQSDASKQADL

Row | activation of calcium pathway [1] | reduction of agonist-stimulated cAMP, non-labouring vs spontaneous early labour ([2]; spontaneous early labour samples) [fold] | reduction of agonist-stimulated cAMP, non-labouring vs spontaneous late labour ([2]; spontaneous late labour samples) [fold] | SMILES | agonist-induced cAMP signalling in labouring groups vs non-labouring ([2]; all labouring groups) | agonist-induced COX-2 in early stage labouring groups ([3]; all early stage labouring groups) | agonist-induced COX-2 increase in late stage labouring groups ([3]; either late stage labouring group) | agonist-induced increases in COX-2 across groups ([3]; non-labouring and labouring groups, normalised to GAPDH)
1 | unable to activate calcium |  |  | CC(C)OC(=O)COc1cccc(NC(=O)c2cc(-c3cccc(F)c3)ccc2F)c1 [PGN9856i, propan-2-yl 2-(3-{3′,4-difluoro-[1,1′-biphenyl]-3-amido}phenoxy)acetate] |  |  |  | 
2 |  | 2.5 | 10 | CCCC1([C@H](O)C/C=C/[C@H]2[C@H](O)CC(=O)[C@@H]2CCCCCCC(=O)OC)CCC1 [butaprost] | significantly attenuated in all labouring groups | significant increase in all early stage labouring groups | not apparent in either late stage labouring group | maintained across non-labouring and labouring groups
